# Data taken from USRE48461E1, “Modulation of androgen receptor expression” (Ionis Pharmaceuticals, Inc., priority 2012, dated 2021).
# Oligonucleotides are written 5' to 3', each unit as a sugar letter and its base; * is a phosphorothioate linkage, no mark a phosphodiester; rarer units and linkages stand in square brackets, end groups in braces. Plain capitals give the bases only. k = constrained ethyl (cEt); [5mC] = 5-methylcytosine; d = 2'-deoxy (DNA)
# What was measured:
# KLK3 mRNA = KLK3 mRNA (AR target gene) in C4-2B MR cells; type: cell-based, human
# KLK2 mRNA = KLK2 mRNA (AR target gene) in C4-2B MR cells; type: cell-based, human
substance,measurement,setting,value
549372 (kA*kA*kG*dT*dT*dG*dT*dA*dG*dT*dA*dG*dT*k[5mC]*kG*k[5mC]) [compound 549372],Percent inhibition of KLK3 mRNA in C4-2B MR cells,KLK3 mRNA; 0.04 μM,17%
same,Percent inhibition of KLK3 mRNA in C4-2B MR cells,KLK3 mRNA; 0.20 μM,35%
same,Percent inhibition of KLK3 mRNA in C4-2B MR cells,KLK3 mRNA; 1.00 μM,68%
same,Percent inhibition of KLK3 mRNA in C4-2B MR cells,KLK3 mRNA; 5.00 μM,80%
same,Percent inhibition of KLK2 mRNA in C4-2B MR cells,KLK2 mRNA; 0.04 μM,14%
same,Percent inhibition of KLK2 mRNA in C4-2B MR cells,KLK2 mRNA; 0.20 μM,16%
same,Percent inhibition of KLK2 mRNA in C4-2B MR cells,KLK2 mRNA; 1.00 μM,57%
same,Percent inhibition of KLK2 mRNA in C4-2B MR cells,KLK2 mRNA; 5.00 μM,87%
